ChEMBL document CHEMBL1201862, “PubChem BioAssay data set” (2004)
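Tested at 5 concentrations; 48 h exposure; 96-well plates; endpoints linearly interpolated, else capped at highest concentration. GI50 is the concentration that inhibits growth by half.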 Calls of active or inactive are those of the source. Cut-off read from the data, not from the text of the source: active = GI50 up to about 1.1 µM and inactive = higher.

Legend:
Experiment in all cases: NCI-60 cell line screen, 48 h
A549 = tested on: A549
CCRF-CEM = tested on: CCRF-CEM
COLO 205 = tested on: COLO 205
HCC 2998 = tested on: HCC 2998
HOP-92 = tested on: HOP-92
HT-29 = tested on: HT-29
Hs-578T = tested on: Hs-578T
KM12 = tested on: KM12
MOLT-4 = tested on: MOLT-4
OVCAR-3 = tested on: OVCAR-3
OVCAR-5 = tested on: OVCAR-5
SF-295 = tested on: SF-295
SK-MEL-2 = tested on: SK-MEL-2
SK-OV-3 = tested on: SK-OV-3
SNB-75 = tested on: SNB-75
SR = tested on: SR
U-251 = tested on: U-251
UACC-257 = tested on: UACC-257
UACC-62 = tested on: UACC-62

Measured: GI50

N=C(N)SCCCN
inactive: A549 37.7 µM | CCRF-CEM 1.39 µM | COLO 205 13.7 µM | HOP-92 4.94 µM | HT-29 16 µM | Hs-578T 5.61 µM | KM12 24.2 µM | OVCAR-3 9.57 µM | OVCAR-5 32.6 µM | SF-295 21.6 µM | SK-MEL-2 13.2 µM | SK-OV-3 22.4 µM | SNB-75 33.7 µM | SR 3.3 µM | U-251 6.11 µM | UACC-257 5.4 µM | UACC-62 17.6 µM
active: HCC 2998 0.0455 µM | MOLT-4 0.368 µM

C=CCC(C(=O)O)c1ccccc1 (configuration not stated)
inactive: A549 > 100 µM | CCRF-CEM > 100 µM | COLO 205 > 100 µM | HCC 2998 > 100 µM | HOP-92 > 100 µM | HT-29 > 100 µM | Hs-578T > 100 µM | KM12 > 100 µM | MOLT-4 > 100 µM | OVCAR-3 > 100 µM | OVCAR-5 > 100 µM | SF-295 > 100 µM | SK-MEL-2 > 100 µM | SK-OV-3 > 100 µM | SNB-75 > 100 µM | SR > 100 µM | U-251 > 100 µM | UACC-257 > 100 µM | UACC-62 > 100 µM

O=[N+]([O-])C(/C=C(\Cl)[N+](=O)[O-])=C(Nc1ccccc1)Nc1ccccc1
inactive: A549 17 µM | CCRF-CEM 1.44 µM | COLO 205 8.53 µM | HCC 2998 21.4 µM | HOP-92 4.69 µM | HT-29 6.21 µM | Hs-578T 8.59 µM | KM12 11.9 µM | MOLT-4 1.75 µM | OVCAR-3 5.19 µM | OVCAR-5 5.36 µM | SF-295 17.3 µM | SK-MEL-2 16.4 µM | SK-OV-3 20.1 µM | SNB-75 1.26 µM | SR 2.6 µM | U-251 14.3 µM | UACC-257 13.9 µM | UACC-62 7.45 µM

O=C(CC(=O)Nc1ccccc1)NNC(Sc1ccccc1)c1cc(/N=N/c2ccc(Br)cc2)ccc1O (configuration not stated)
active: CCRF-CEM 0.417 µM | MOLT-4 0.0916 µM | OVCAR-3 0.394 µM | SR 0.353 µM
inactive: A549 3.85 µM | COLO 205 3.2 µM | HCC 2998 > 10 µM | HOP-92 4.51 µM | HT-29 8.13 µM | Hs-578T > 10 µM | KM12 4.07 µM | OVCAR-5 7.98 µM | SF-295 3.85 µM | SK-MEL-2 > 10 µM | SK-OV-3 4.21 µM | SNB-75 3.15 µM | U-251 6.31 µM | UACC-257 4.29 µM | UACC-62 2.09 µM

CCCCCCCCCCCCc1ccsc1-c1ccc(-c2ccc(-c3sccc3CCCCCCCCCCCC)s2)s1
inactive: A549 > 100 µM | CCRF-CEM > 100 µM | COLO 205 > 100 µM | HCC 2998 > 100 µM | HOP-92 > 100 µM | HT-29 > 100 µM | Hs-578T > 100 µM | KM12 > 100 µM | MOLT-4 > 100 µM | OVCAR-3 > 100 µM | OVCAR-5 > 100 µM | SF-295 > 100 µM | SK-MEL-2 > 100 µM | SK-OV-3 > 100 µM | SNB-75 > 100 µM | SR > 100 µM | U-251 > 100 µM | UACC-257 > 100 µM | UACC-62 > 100 µM

Cc1cnc2c(c1C)C(=O)c1ccccc1C2=O
inactive: A549 40.1 µM | CCRF-CEM 69.8 µM | COLO 205 28.8 µM | HCC 2998 29.7 µM | HOP-92 > 100 µM | HT-29 37.2 µM | Hs-578T 32.9 µM | KM12 44.6 µM | MOLT-4 28.3 µM | OVCAR-3 3.48 µM | OVCAR-5 > 100 µM | SF-295 50.2 µM | SK-MEL-2 63.5 µM | SK-OV-3 50.5 µM | SNB-75 32.9 µM | SR 38 µM | U-251 61.5 µM | UACC-257 49.4 µM

COc1ccc(C(CC(=O)C(C)(C)CN2CCCCC2)SCCS(=O)(=O)O)cc1 (configuration not stated)
inactive: A549 41.4 µM | CCRF-CEM 17.1 µM | COLO 205 28.4 µM | HCC 2998 67.3 µM | HOP-92 17.8 µM | HT-29 26.2 µM | Hs-578T 55.3 µM | KM12 30.4 µM | MOLT-4 22.1 µM | OVCAR-3 12.8 µM | OVCAR-5 21.3 µM | SF-295 13.9 µM | SK-MEL-2 > 100 µM | SK-OV-3 60.7 µM | SNB-75 22.3 µM | SR 14.3 µM | U-251 62.1 µM | UACC-257 34.4 µM | UACC-62 37.3 µM

CCOC(=O)C(NC(=O)CC(C)C)(N1CCN(c2cc3c(cc2F)c(=O)c(C(=O)O)cn3C2CC2)CC1)C(F)(F)F (configuration not stated)
inactive: A549 27.5 µM | CCRF-CEM 3.32 µM | COLO 205 16.7 µM | HCC 2998 12 µM | HOP-92 9.57 µM | HT-29 29.3 µM | Hs-578T 21.8 µM | KM12 13.6 µM | MOLT-4 5.71 µM | OVCAR-3 14.7 µM | OVCAR-5 17.7 µM | SF-295 21.3 µM | SK-MEL-2 20 µM | SK-OV-3 24 µM | SNB-75 21.4 µM | SR 11.6 µM | U-251 14.7 µM | UACC-257 16.7 µM | UACC-62 15.2 µM

CN(/N=C(\C(=O)O)c1ccccc1)C1=NCCN1
inactive: A549 > 100 µM | CCRF-CEM > 100 µM | COLO 205 > 100 µM | HCC 2998 > 100 µM | HOP-92 > 100 µM | HT-29 > 100 µM | Hs-578T > 100 µM | KM12 > 100 µM | MOLT-4 > 100 µM | OVCAR-3 > 100 µM | OVCAR-5 > 100 µM | SF-295 > 100 µM | SK-MEL-2 > 100 µM | SK-OV-3 > 100 µM | SNB-75 > 100 µM | SR > 100 µM | UACC-257 > 100 µM | UACC-62 > 100 µM

N#Cc1[nH]c(=O)n(-c2ccc([N+](=O)[O-])cc2)c1N
inactive: A549 > 10 µM | CCRF-CEM > 10 µM | COLO 205 > 10 µM | HCC 2998 > 10 µM | HOP-92 > 10 µM | HT-29 > 10 µM | Hs-578T > 10 µM | MOLT-4 > 10 µM | OVCAR-3 > 10 µM | OVCAR-5 > 10 µM | SF-295 > 10 µM | SK-MEL-2 > 10 µM | SK-OV-3 > 10 µM | SNB-75 > 10 µM | SR > 10 µM | U-251 > 10 µM | UACC-257 > 10 µM | UACC-62 > 10 µM

CCOC(=O)/C=C/C(Br)=C(Br)/C=C/C(=O)OCC
active: CCRF-CEM 0.796 µM
inactive: A549 22.5 µM | COLO 205 16.4 µM | HCC 2998 20.6 µM | HOP-92 19.1 µM | HT-29 14.8 µM | Hs-578T 29.2 µM | KM12 16.6 µM | MOLT-4 1.83 µM | OVCAR-3 12.1 µM | OVCAR-5 18.6 µM | SF-295 14.8 µM | SK-MEL-2 20.2 µM | SK-OV-3 20.3 µM | SNB-75 12.4 µM | SR 7.8 µM | U-251 14.6 µM | UACC-257 18.2 µM | UACC-62 15.4 µM

O=C1O/C(=C(\Br)c2ccc([N+](=O)[O-])cc2)c2ccccc21
inactive: A549 > 100 µM | CCRF-CEM 21.4 µM | COLO 205 > 100 µM | HCC 2998 > 100 µM | HOP-92 > 100 µM | HT-29 41.1 µM | Hs-578T 74.8 µM | KM12 > 100 µM | MOLT-4 27.8 µM | OVCAR-3 > 88.5 µM | OVCAR-5 > 100 µM | SF-295 > 100 µM | SK-MEL-2 46.2 µM | SK-OV-3 > 100 µM | SNB-75 > 78.3 µM | SR 28.8 µM | U-251 73.3 µM | UACC-257 > 74.8 µM | UACC-62 58.5 µM

O=C(Cc1ccccc1)N/N=C/c1ccccc1O
inactive: A549 26.1 µM | CCRF-CEM 4.94 µM | COLO 205 4.09 µM | HCC 2998 11.2 µM | HOP-92 9.14 µM | HT-29 4.84 µM | Hs-578T 36.1 µM | KM12 32.7 µM | MOLT-4 4.55 µM | OVCAR-3 3.36 µM | OVCAR-5 20.6 µM | SF-295 10.3 µM | SK-MEL-2 > 100 µM | SK-OV-3 15.9 µM | SNB-75 12.5 µM | SR 5.52 µM | U-251 19.5 µM | UACC-257 9.57 µM | UACC-62 8.95 µM

CC1(C)S[C@@H]2[C@H](NC(=O)/C=C/c3ccccc3)C(=O)N2[C@H]1C(=O)O
inactive: A549 > 100 µM | CCRF-CEM > 100 µM | COLO 205 > 100 µM | HCC 2998 > 100 µM | HOP-92 > 100 µM | HT-29 > 100 µM | Hs-578T > 100 µM | KM12 > 100 µM | MOLT-4 > 100 µM | OVCAR-3 > 100 µM | OVCAR-5 > 100 µM | SF-295 > 100 µM | SK-MEL-2 > 100 µM | SK-OV-3 > 100 µM | SNB-75 47.9 µM | SR > 100 µM | U-251 > 100 µM | UACC-257 > 100 µM | UACC-62 > 100 µM

CCc1nc(N)nc(N)c1-c1ccc(N2CCOCC2)c(N=[N+]=[N-])c1
inactive: A549 21.2 µM | CCRF-CEM 53.8 µM | COLO 205 79.6 µM | HCC 2998 47.9 µM | HOP-92 78.3 µM | HT-29 31.8 µM | Hs-578T > 100 µM | KM12 70.5 µM | MOLT-4 64.3 µM | OVCAR-3 77.6 µM | OVCAR-5 > 100 µM | SF-295 63 µM | SK-MEL-2 > 100 µM | SK-OV-3 > 100 µM | SNB-75 > 92 µM | SR 36.9 µM | U-251 67 µM | UACC-257 > 100 µM | UACC-62 47 µM
